Data reported in the supplement of paper PMC10307832.

Legend:
Assay in all cases: relative viability (nuclei count vs DMSO), 5 days (fraction); higher = more cells survive
[1] = compound: Cn1cc(-c2cnc3ccc4ccc(CS(=O)(=O)NCc5ccccn5)cc4c(=O)c3c2)cn1 [MK-8033] + CS(=O)(=O)N1CCN(Cc2cc3nc(-c4cccc5[nH]ncc45)nc(N4CCOCC4)c3s2)CC1 [Pictilisib] (partner 1 µM)
Procedure, shortened: (§1)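 Five library-drug doses in √10 steps were combined with a fixed anchor-drug dose, or a single drug was given alone, by pin tool to lung cancer cell lines in 1536-well plates the day after seeding. Nuclei were stained and counted after 5 days. Relative viability is the nuclei count in treated wells over that in vehicle wells, taken as the median of duplicate plates.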

[2] = compound: Cn1cc(-c2cnc3ccc4ccc(CS(=O)(=O)NCc5ccccn5)cc4c(=O)c3c2)cn1 [MK-8033] + CC(C)C[C@H](NC(=O)[C@H](Cc1ccccc1)NC(=O)c1cnccn1)B(O)O [Bortezomib] (partner 0.002 µM)
Procedure, shortened: as §1

[3] = compound: Cn1cc(-c2cnc3ccc4ccc(CS(=O)(=O)NCc5ccccn5)cc4c(=O)c3c2)cn1 [MK-8033] + O=C(c1cc(Cc2n[nH]c(=O)c3ccccc23)ccc1F)N1CCN(C(=O)C2CC2)CC1 [Olaparib] (partner 8 µM)
Procedure, shortened: as §1

[4] = compound: CC[C@@H](C)CNCC(=O)N1CCC2=C([C@@H]1COC3=CC=CC(=C3)C)C=CS2 [RU-SKI 43] + Cc1cc(Nc2cc(N3CCN(C)CC3)nc(Sc3ccc(NC(=O)C4CC4)cc3)n2)n[nH]1 [Tozasertib] (partner 0.1 µM)
Procedure, shortened: as §1

NCI-H596
relative viability ([1]; first compound 0.02 µM): 0.352 | relative viability ([1]; first compound 0.06325 µM): 0.319 | relative viability ([1]; first compound 0.2 µM): 0.379 | relative viability ([1]; first compound 0.6325 µM): 0.384 | relative viability ([1]; first compound 2 µM): 0.397 | relative viability ([2]; first compound 0.02 µM): 1.18 | relative viability ([2]; first compound 0.06325 µM): 0.933 | relative viability ([2]; first compound 0.2 µM): 0.882 | relative viability ([2]; first compound 0.6325 µM): 0.941 | relative viability ([2]; first compound 2 µM): 1.09 | relative viability ([3]; first compound 0.02 µM): 0.698 | relative viability ([3]; first compound 0.06325 µM): 0.613 | relative viability ([3]; first compound 0.2 µM): 0.616 | relative viability ([3]; first compound 0.6325 µM): 0.7 | relative viability ([3]; first compound 2 µM): 0.737 | relative viability ([4]; first compound 0.1 µM): 0.996 | relative viability ([4]; first compound 0.3162 µM): 0.849 | relative viability ([4]; first compound 1 µM): 0.869 | relative viability ([4]; first compound 3.162 µM): 0.954 | relative viability ([4]; first compound 10 µM): 0.849

NCI-H3122
relative viability ([1]; first compound 0.02 µM): 0.676 | relative viability ([1]; first compound 0.06325 µM): 0.563 | relative viability ([1]; first compound 0.2 µM): 0.602 | relative viability ([1]; first compound 0.6325 µM): 0.66 | relative viability ([1]; first compound 2 µM): 0.628 | relative viability ([2]; first compound 0.02 µM): 1.08 | relative viability ([2]; first compound 0.06325 µM): 1.01 | relative viability ([2]; first compound 0.2 µM): 0.982 | relative viability ([2]; first compound 0.6325 µM): 0.999 | relative viability ([2]; first compound 2 µM): 0.941 | relative viability ([3]; first compound 0.02 µM): 0.576 | relative viability ([3]; first compound 0.06325 µM): 0.662 | relative viability ([3]; first compound 0.2 µM): 0.618 | relative viability ([3]; first compound 0.6325 µM): 0.572 | relative viability ([3]; first compound 2 µM): 0.589 | relative viability ([4]; first compound 0.1 µM): 0.372 | relative viability ([4]; first compound 0.3162 µM): 0.416 | relative viability ([4]; first compound 1 µM): 0.495 | relative viability ([4]; first compound 3.162 µM): 0.392 | relative viability ([4]; first compound 10 µM): 0.369

NCI-H727
relative viability ([1]; first compound 0.02 µM): 0.52 | relative viability ([1]; first compound 0.06325 µM): 0.451 | relative viability ([1]; first compound 0.2 µM): 0.354 | relative viability ([1]; first compound 0.6325 µM): 0.5 | relative viability ([1]; first compound 2 µM): 0.273 | relative viability ([2]; first compound 0.02 µM): 0.873 | relative viability ([2]; first compound 0.06325 µM): 0.62 | relative viability ([2]; first compound 0.2 µM): 0.882 | relative viability ([2]; first compound 0.6325 µM): 0.993 | relative viability ([2]; first compound 2 µM): 0.857 | relative viability ([3]; first compound 0.02 µM): 0.679 | relative viability ([3]; first compound 0.06325 µM): 0.603 | relative viability ([3]; first compound 0.2 µM): 0.337 | relative viability ([3]; first compound 0.6325 µM): 0.702 | relative viability ([3]; first compound 2 µM): 0.808 | relative viability ([4]; first compound 0.1 µM): 0.658 | relative viability ([4]; first compound 0.3162 µM): 0.583 | relative viability ([4]; first compound 1 µM): 0.54 | relative viability ([4]; first compound 3.162 µM): 0.564 | relative viability ([4]; first compound 10 µM): 0.629

NCI-H1355
relative viability ([1]; first compound 0.02 µM): 0.424 | relative viability ([1]; first compound 0.06325 µM): 0.302 | relative viability ([1]; first compound 0.2 µM): 0.442 | relative viability ([1]; first compound 0.6325 µM): 0.393 | relative viability ([1]; first compound 2 µM): 0.442 | relative viability ([2]; first compound 0.02 µM): 1.25 | relative viability ([2]; first compound 0.06325 µM): 1.12 | relative viability ([2]; first compound 0.2 µM): 1.14 | relative viability ([2]; first compound 0.6325 µM): 1.21 | relative viability ([2]; first compound 2 µM): 1.15 | relative viability ([3]; first compound 0.02 µM): 0.759 | relative viability ([3]; first compound 0.06325 µM): 0.759 | relative viability ([3]; first compound 0.2 µM): 0.632 | relative viability ([3]; first compound 0.6325 µM): 0.756 | relative viability ([3]; first compound 2 µM): 0.696 | relative viability ([4]; first compound 0.1 µM): 0.516 | relative viability ([4]; first compound 0.3162 µM): 0.617 | relative viability ([4]; first compound 1 µM): 0.618 | relative viability ([4]; first compound 3.162 µM): 0.562 | relative viability ([4]; first compound 10 µM): 0.447

NCI-H661
relative viability ([1]; first compound 0.02 µM): 0.447 | relative viability ([1]; first compound 0.2 µM): 0.394 | relative viability ([1]; first compound 0.6325 µM): 0.454 | relative viability ([1]; first compound 2 µM): 0.423 | relative viability ([2]; first compound 0.02 µM): 0.764 | relative viability ([2]; first compound 0.06325 µM): 0.685 | relative viability ([2]; first compound 0.2 µM): 0.647 | relative viability ([2]; first compound 0.6325 µM): 0.907 | relative viability ([2]; first compound 2 µM): 0.858 | relative viability ([3]; first compound 0.02 µM): 0.726 | relative viability ([3]; first compound 0.06325 µM): 0.679 | relative viability ([3]; first compound 0.2 µM): 0.774 | relative viability ([3]; first compound 0.6325 µM): 0.71 | relative viability ([3]; first compound 2 µM): 0.675 | relative viability ([4]; first compound 0.1 µM): 0.345 | relative viability ([4]; first compound 0.3162 µM): 0.349 | relative viability ([4]; first compound 1 µM): 0.345 | relative viability ([4]; first compound 3.162 µM): 0.335 | relative viability ([4]; first compound 10 µM): 0.365
